Assay [1] concerns the target T1, RXRβ (UniProt P28704).
T1 sequence (P28704 1-520): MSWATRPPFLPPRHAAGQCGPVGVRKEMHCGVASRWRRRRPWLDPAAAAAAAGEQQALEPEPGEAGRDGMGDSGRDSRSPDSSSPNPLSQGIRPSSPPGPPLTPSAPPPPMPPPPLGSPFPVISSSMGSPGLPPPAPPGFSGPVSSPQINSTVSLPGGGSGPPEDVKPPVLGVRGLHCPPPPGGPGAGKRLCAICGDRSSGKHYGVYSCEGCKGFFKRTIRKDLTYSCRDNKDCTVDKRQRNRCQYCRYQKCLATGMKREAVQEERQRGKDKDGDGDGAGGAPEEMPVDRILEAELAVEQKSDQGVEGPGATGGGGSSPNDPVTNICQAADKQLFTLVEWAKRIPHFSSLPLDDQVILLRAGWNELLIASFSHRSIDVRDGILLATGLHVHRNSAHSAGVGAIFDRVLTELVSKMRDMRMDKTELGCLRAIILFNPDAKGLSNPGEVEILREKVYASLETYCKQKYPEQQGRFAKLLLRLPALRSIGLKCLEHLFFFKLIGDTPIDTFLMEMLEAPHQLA
Description: holoreceptor transactivation assay, RXRβ. The format is cell-based. As to conditions: for EC50: holoreceptor transactivation, read-out: RXR Trans. EC50 β; for RXR Trans. efficacy (number in parentheses) β: percentage compared to the standard compound. The text has this:
(§1) Specifically, one such assay is a chimeric receptor transactivation assay which tests for agonist-like activity in the R RAPE and RAR7 receptor subtypes, and which is based on work published by Feigner, P. L. and Holm, M (1989) Focus, 112 is described in detail in U.S. Pat. No. 5,455,265. The specification of U.S. Pat. No. 5,455,265 is hereby expressly incorporated by reference. A holoreceptor transactivation assay and a ligand binding assay which measure the antagonist/agonist like activity of the compounds of the invention, or their ability to bind to the several retinoid receptor subtypes, respectively, are described in published PCT Application No. WO WO93/11755 (particularly on pages 30-33 and 37-41) published on Jun. 24, 1993, the specification of which is also incorporated herein by reference. A detailed experimental procedure for holoreceptor transactivations has been described by Heyman et al. Cell 68, 397-406, (1992); Allegretto et al. J. Biol. Chem. 268, 26625-26633, and Mangelsdorf et al. The Retinoids: Biology, Chemistry and Medicine, pp 319-349, Raven Press Ltd., New York, which are expressly incorporated herein by reference. The results obtained in this assay are expressed in EC50 numbers, as they are also in the chimeric receptor transactivation assay. The results of the ligand binding assay are expressed in Ki numbers. (See Cheng et al. Biochemical Pharmacology Vol. 22 pp 3099-3108, expressly incorporated herein by reference.)
Efficacy in a transactivation assay is expressed as a percentage of the maximum potency attained by the compound compared to a standard which, in this case, is the compound named (2E,4E,1′S,2′S)-3-methyl-5-[2′-methyl-2′-(5,5,8,8-tetramethyl-5,6,7,8-tetrahydro-naphthalen-2-yl)-cyclopropyl]-penta-2,4-dienoic acid. This standard compound is described in U.S. Pat. No. 6,114,533.
The specification of this application for patent is organized in several sections in accordance with structural Formulas A through F each of which discloses a group of preferred compounds within the scope of the invention. Tables that disclose the activity of certain exemplary compounds of the invention in the above-described RXR receptor transactivation and binding assays are found in the corresponding sections. […] The transactivation data pertaining to the activation of RXR receptors were obtained in the holoreceptor assay.
(§2) Generally speaking, in the tables disclosing the results of transactivation and binding assays the numbers in parentheses indicate efficacy as a percentage compared to the standard compound, (2E,4E,1′S,2′S)-3-methyl-5-[2′-methyl-2′-(5,5,8,8-tetramethyl-5,6,7,8-tetrahydro-naphthalen-2-yl)cyclopropyl]-penta-2,4-dienoic acid and the other numbers indicate the measured EC50 and K; in nanomolar concentration.

Assay [2] addresses T2, RARγ (Homo sapiens, UniProt P13631).
T2 sequence (P13631 1-454): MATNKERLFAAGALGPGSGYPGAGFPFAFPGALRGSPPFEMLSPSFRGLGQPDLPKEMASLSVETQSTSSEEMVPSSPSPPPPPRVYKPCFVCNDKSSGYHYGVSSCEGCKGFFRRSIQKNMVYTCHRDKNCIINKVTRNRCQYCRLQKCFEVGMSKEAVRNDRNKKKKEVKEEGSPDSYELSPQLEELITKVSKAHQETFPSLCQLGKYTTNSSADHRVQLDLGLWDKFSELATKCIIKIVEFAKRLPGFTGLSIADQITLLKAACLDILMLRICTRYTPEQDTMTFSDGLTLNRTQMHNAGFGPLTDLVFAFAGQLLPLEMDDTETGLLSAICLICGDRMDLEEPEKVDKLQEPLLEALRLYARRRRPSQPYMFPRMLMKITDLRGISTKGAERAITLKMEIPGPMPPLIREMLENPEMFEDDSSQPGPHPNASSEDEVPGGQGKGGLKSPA
Description: ligand binding assay, RARγ. To be noted: for Ki: read-out: RAR Bind. Ki γ.
Source text: as §1, §2

The target in assay [3] is T3, RXRα (Homo sapiens, UniProt P19793).
T3 construct: expressed in transfected cells
T3 sequence (P19793 1-462): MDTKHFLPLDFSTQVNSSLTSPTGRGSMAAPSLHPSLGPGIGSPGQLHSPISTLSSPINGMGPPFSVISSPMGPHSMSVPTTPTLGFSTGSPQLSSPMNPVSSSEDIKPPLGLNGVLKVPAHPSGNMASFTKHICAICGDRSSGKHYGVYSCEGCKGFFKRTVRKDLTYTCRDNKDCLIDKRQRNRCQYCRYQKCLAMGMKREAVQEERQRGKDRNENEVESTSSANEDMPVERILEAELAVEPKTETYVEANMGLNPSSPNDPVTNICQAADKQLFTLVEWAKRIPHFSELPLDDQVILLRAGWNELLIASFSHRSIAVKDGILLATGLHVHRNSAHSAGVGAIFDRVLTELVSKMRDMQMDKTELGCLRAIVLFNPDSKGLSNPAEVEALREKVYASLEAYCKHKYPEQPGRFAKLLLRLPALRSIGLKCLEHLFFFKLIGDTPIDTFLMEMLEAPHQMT
Put plainly: ligand binding assay, RXRα. To be noted: for Ki: read-out: RXR Bind Ki α.
Source text: as §1, §2

Molecules are shown by their SMILES.

Turning to `CCOc1cc2c(cc1\C(C)=C(F)/C=C/C(C)=C/C(=O)O)C(C(C)C)=CCC2(C)C` [Compound A-79, (2E,4E,6E)-6-Fluoro-3-(4,4-dimethylethoxy-1-isopropyl-3,4-dihydronaphthalen-7-yl)-3-methyl-2.4,6-octa-trienoic acid], in assay [1], the EC50 worked out at 4 nM. For the same compound, the “RXR Trans. efficacy (number in parentheses) β” value (“RXR Trans. efficacy” below) in assay [1] was determined as 60%. For the same compound, the inhibition constant Ki in assay [2] was 3500 nM; in assay [3], 2 nM.

Consider `CCOc1c(\C(=C(F)/C=C/C(C)=C/C(=O)O)C(C)C)cc2c(c1Br)C(C)(C)CC=C2C(C)C` [Compound A-171, (2E,4E,6E)-7-(4-Bromo-3-ethoxy-8-isopropyl-5,5-dimethyl-5,6-dihydro-naphthalen-2-yl)-6-fluoro-3.8-dimethyl-nona-2.4,6-trienoic acid], for which, in assay [1], the EC50 was found to be 3 nM and the “RXR Trans. efficacy” value worked out at 30%. For the same compound, the Kd in assay [2] (Table 9 (Formula F), read-out: RAR γ Kd) is 272 nM. In assay [3] (Table 9 (Formula F), read-out: RXR α Kd), the Kd is 2 nM.

Turning to `COc1c(\C(C)=C/C=C/C(C)=C/C(=O)O)cc2c(c1Cl)OC(C)(C)C=C2C(C)C` [Compound 49, 7-(8-Chloro-4-isopropyl-7-methoxy-2,2-dimethyl-2H-chromen-6-y)-3-methyl-octa-2E,4E,6Z-trienoic acid], in assay [1], the EC50 was determined as 0.9 nM. In assay [1], the “RXR Trans. efficacy” value stood at 98%. Also, the Ki in assay [2] was greater than 10000 nM; in assay [3], 2 nM.

For the compound `CCOc1c(\C(C)=C/C=C/C(C)=C/C(=O)O)cc2c(c1Cl)OC(C)(C)C=C2C(C)C` [Compound 50, 7-(8-Chloro-4-isopropyl-7-ethoxy-2,2-dimethyl-2H-chromen-6-yl)-3-methyl-octa-2E,4E,6Z-trienoic acid], in assay [1], the EC50 came out at 19 nM. Also, in assay [1], the “RXR Trans. efficacy” value was 57%. In addition, the inhibition constant Ki was 5900 nM in assay [2] and 4 nM in assay [3].

In the case of `CCOc1cc2c(cc1\C(C)=C/C=C/C(C)=C/C(=O)O)C(C(C)(C)C)=CCC2(C)C` [Compound A-17, 7-(8-tert-Butyl-3-ethyloxy-5,5-dimethyl-5,6-dihydronaphthalen-2-yl)-3-methyl-octa-2E,4E,6Z-trienoic acid], in assay [1], the EC50 is 3.2 nM and the “RXR Trans. efficacy” value is given as 72%. Besides, the Ki in assay [2] came out at 1900 nM. In addition, the Ki in assay [3] came to 2.4 nM.

Regarding `CC/C(=C(F)/C=C/C(C)=C/C(=O)O)c1cc2c(cc1OC)OC(C)(C)C=C2C` [Compound 129, 6-Fluoro-7-(7-methoxy-2,2,4-trimethyl-2H-chromen-6-yl)-3-methyl-nona-2E,4E,6E-trienoic acid], the EC50 in assay [1] turned out to be 843 nM. Besides, the “RXR Trans. efficacy” value in assay [1] is reported as 151%. For the same compound, the Ki in assay [2] was 4700 nM; in assay [3], 69 nM.

Take `CC(/C=C/C(F)=C(/C)c1cc2c(c(Cl)c1OC(C)C)OC(C)(C)C=C2C(C)C)=C\C(=O)O` [Compound 174]: in assay [1], the EC50 is 527 nM and the “RXR Trans. efficacy” value was 12%. In addition, the Ki in assay [2] was 3400 nM. In assay [3], the inhibition constant (Ki) is 29 nM.

For the compound `CCOc1cc2c(cc1\C(CC)=C(F)/C=C/C(C)=C/C(=O)O)C(CC)=CCC2(C)C` [Compound A-78, (2E,4E,6E)-7-(3-Ethoxy-8-ethyl-5,5-dimethyl-5,6-dihydro-naphthalen-2-yl)-6-fluoro-3-methyl-nona-2,4,6-trienoic acid], in assay [1], the EC50 came out at 18 nM and the “RXR Trans. efficacy” value is listed as 23%. Besides, the inhibition constant Ki in assay [2] was 2200 nM. In assay [3], the Ki worked out at 3 nM.

In the case of `COc1cc2c(cc1\C(C)=C/C=C/C(C)=C/C(=O)O)C(C(C)C)=CC(C)(C)O2` [Compound 43, 7-(4-Isopropyl-7-methoxy-2,2-dimethyl-2H-chromen-6-yl)-3-methyl-octa-2E,4E,6Z-trienoic acid], in assay [1], the EC50 came out at 16 nM. Also, the “RXR Trans. efficacy” value in assay [1] amounted to 96%. Besides, the results for the inhibition constant (Ki) in assay [2] and in assay [3] were 2500 nM and 6 nM, respectively.

Consider `CCC1=CC(C)(C)Oc2cc(OC)c(\C(C)=C(F)/C=C/C(C)=C/C(=O)O)cc21` [Compound 120, 7-(4Ethyl-7-methoxy-2,2-dimethyl-2H-chromen-6-yl)-6-fluoro-3-methyl-octa-2E,4E,6E-trienoic acid], for which the EC50 in assay [1] was greater than 10000 nM. The Ki in assay [2] is greater than 10000 nM; in assay [3] it was 277 nM.

With `CCOc1cc2c(cc1\C(=C/C=C/C(C)=C/C(=O)O)CC)C(C)=CCC2(C)C` [Compound A-16, 7-(3-Ethoxy-5,5,8-trimethyl-5,6-dihydronaphthalen-2-yl)-3-methyl-nona-2E,4E,6Z-trienoic acid], in assay [1], the concentration giving a half-maximal response (EC50) came to 191 nM and the “RXR Trans. efficacy” value is given as 37%. Also, the Ki in assay [2] was 3800 nM. In addition, the Ki in assay [3] amounted to 8.7 nM.

Regarding `COc1c(\C(C)=C(F)/C=C/C(C)=C/C(=O)O)cc2c(c1Cl)OC(C)(C)C=C2C(C)C` [Compound 170, 7-(8-Chloro-4-isopropyl-7-methoxy-2,2-dimethyl-2H-chromen-6-yl)-6-fluoro-3-methyl-octa-2E,4E,6E-trienoic acid], in assay [1], the EC50 amounted to 0.8 nM and the “RXR Trans. efficacy” value is on record as 88%. For the same compound, in assay [2], the Ki was 5300 nM. In assay [3], the Ki was determined as 2 nM.

Turning to `CCOc1cc2c(cc1\C(=C/C=C/C(C)=C/C(=O)O)CC)C(C(C)(C)C)=CCC2(C)C` [Compound A-18, 7-(8-tert-butyl-3-ethyoxy-5,5-dimethyl-5,6-dihydronaphthalen-2-yl)-3-methyl-nona-2E,4E,6Z-trienoic acid], in assay [1], the EC50 was 11 nM and the “RXR Trans. efficacy” value is given as 21%. Further, the Ki in assay [2] was found to be 537 nM. Also, in assay [3], the Ki worked out at 5 nM.

With `CCOc1cc2c(cc1\C(C)=C/C=C/C(C)=C/C(=O)O)C(CC)=CC(C)(C)O2` [Compound 45, 7-(7-Ethoxy-4-ethyl-2,2-dimethyl-2H-chromen-6-yl)-3-methyl-octa-2E,4E,6Z-trienoic acid], in assay [1], the EC50 was greater than 1000 nM. For the same compound, the Ki in assay [2] was 2300 nM; in assay [3], 52 nM.

For the origin of these results see patent publication US6887896B1, “7-[(7-Alkoxy)-chrom-3-en-6-yl]-heptatrienoic acid and 7-[(3-alkoxy)-5,6-dihydronaphthalen-2-yl]-heptatrienoic acid derivatives having serum glucose reducing activity” (Allergan, Inc., priority 2003, dated 2005).
